Experimental data: ChEMBL document CHEMBL1201862, “PubChem BioAssay data set” (2004)
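1) Cells in 96-well plates. 2) Compound, 48 h, 5 concentrations. 3) Linear interpolation between surrounding doses. 4) Unreached endpoint = highest concentration. At the GI50, growth is halved.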 Calls of active or inactive are those of the source. Cut-off read from the data, not from the text of the source: active = GI50 up to about 1.1 µM and inactive = higher.

Assays:
Experiment in all cases: inhibition of tumour cell growth, NCI panel, 48 h
UO-31 = test system: UO-31
MDA-MB-435 = test system: MDA-MB-435
NCI/ADR-RES = test system: NCI/ADR-RES
MDA-MB-231 = test system: MDA-MB-231
NCI-H460 = test system: NCI-H460
SK-MEL-2 = test system: SK-MEL-2
SW-620 = test system: SW-620
SR = test system: SR
U-251 = test system: U-251
HCT-15 = test system: HCT-15
T47D = test system: T47D
A549 = test system: A549
CCRF-CEM = test system: CCRF-CEM
K562 = test system: K562
MDA-N = test system: MDA-N
MOLT-4 = test system: MOLT-4
EKVX = test system: EKVX
Hs-578T = test system: Hs-578T
SK-MEL-5 = test system: SK-MEL-5
HCC 2998 = test system: HCC 2998
PC-3 = test system: PC-3
IGROV-1 = test system: IGROV-1
TK-10 = test system: TK-10
ACHN = test system: ACHN
SNB-19 = test system: SNB-19
M14 = test system: M14
HOP-62 = test system: HOP-62
NCI-H226 = test system: NCI-H226
MCF7 = test system: MCF7
SF-539 = test system: SF-539
HT-29 = test system: HT-29
CAKI-1 = test system: CAKI-1
UACC-62 = test system: UACC-62
RPMI-8226 = test system: RPMI-8226
DU-145 = test system: DU-145
SNB-75 = test system: SNB-75
SK-OV-3 = test system: SK-OV-3
COLO 205 = test system: COLO 205
OVCAR-8 = test system: OVCAR-8
HL-60 = test system: HL-60
RXF 393 = test system: RXF 393
SF-295 = test system: SF-295
SK-MEL-28 = test system: SK-MEL-28
KM12 = test system: KM12
786-0 = test system: 786-0
SN12C = test system: SN12C
OVCAR-4 = test system: OVCAR-4
HCT-116 = test system: HCT-116
SF-268 = test system: SF-268
UACC-257 = test system: UACC-257

For `Cn1c(-c2ccc(-c3cc(-c4cccs4)c(-c4cccs4)n3C)cc2)cc(-c2cccs2)c1-c1cccs1`, the GI50 (UO-31) was > 100 µM (inactive), the GI50 (MDA-MB-435) was > 100 µM (inactive) and the GI50 (NCI/ADR-RES) was > 100 µM (inactive). For the same compound, the GI50 (MDA-MB-231) was > 100 µM (inactive), the GI50 (NCI-H460) was > 100 µM (inactive) and the GI50 (SK-MEL-2) was > 100 µM (inactive). The GI50 (SW-620) was > 100 µM (inactive), the GI50 (SR) was > 100 µM (inactive) and the GI50 (U-251) was > 100 µM (inactive). For the same compound, the GI50 (HCT-15) was over 100 µM, the GI50 (T47D) was > 100 µM (inactive) and the GI50 (A549) was > 100 µM (inactive). For the same compound, the GI50 (CCRF-CEM) was > 100 µM (inactive), the GI50 (K562) was > 100 µM (inactive) and the GI50 (MDA-N) was > 100 µM (inactive). The GI50 (MOLT-4) was > 100 µM (inactive), the GI50 (EKVX) was > 100 µM (inactive) and the GI50 (Hs-578T) was > 100 µM (inactive). For the same compound, the GI50 (SK-MEL-5) was > 100 µM (inactive), the GI50 (HCC 2998) was > 100 µM (inactive) and the GI50 (PC-3) was > 100 µM (inactive). For the same compound, the GI50 (IGROV-1) was > 100 µM (inactive), the GI50 (TK-10) was > 100 µM (inactive) and the GI50 (ACHN) was > 100 µM (inactive). For the same compound, the GI50 (SNB-19) was > 100 µM (inactive), the GI50 (M14) was > 100 µM (inactive) and the GI50 (HOP-62) was > 100 µM (inactive). For the same compound, the GI50 (NCI-H226) was > 100 µM (inactive), the GI50 (MCF7) was > 100 µM (inactive) and the GI50 (SF-539) was > 100 µM (inactive). For the same compound, the GI50 (HT-29) was > 100 µM (inactive), the GI50 (CAKI-1) was > 100 µM (inactive) and the GI50 (UACC-62) was > 100 µM (inactive). For the same compound, the GI50 (RPMI-8226) was > 100 µM (inactive), the GI50 (DU-145) was > 100 µM (inactive) and the GI50 (SNB-75) was > 100 µM (inactive). The GI50 (SK-OV-3) was > 100 µM (inactive), the GI50 (COLO 205) was > 100 µM (inactive) and the GI50 (OVCAR-8) was > 100 µM (inactive). The GI50 (HL-60) was > 100 µM (inactive), the GI50 (RXF 393) was > 100 µM (inactive) and the GI50 (SF-295) was > 100 µM (inactive). For the same compound, the GI50 (SK-MEL-28) was > 100 µM (inactive), the GI50 (KM12) was > 100 µM (inactive) and the GI50 (786-0) was > 100 µM (inactive). The GI50 (SN12C) was > 100 µM (inactive), the GI50 (OVCAR-4) was > 100 µM (inactive) and the GI50 (HCT-116) was > 100 µM (inactive). The GI50 (SF-268) was > 100 µM (inactive) and the GI50 (UACC-257) was > 100 µM (inactive).
